The target of this test is Aβ1-42 peptide (Homo sapiens, UniProt P05067). The test is described as follows: Thioflavin T spectrofluorescence assay (ThT-assay): inhibition of Aβ1-42 aggregation (% inhibition at 330 μM; IC50 from dilution series). As to conditions: 24 h, read-out: Inhibition at 330 μM [%], ThT assay; 330 μM small molecule, 33 μM Aβ1-42 (10:1), 24 hrs at 37° C.; mean ± standard deviation of two independent experiments.
Chain of Aβ1-42 peptide (P05067 672-713 limits assumed): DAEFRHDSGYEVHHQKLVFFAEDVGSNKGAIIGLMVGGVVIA

Experimental: Aβ1-42 lyophilized powder (Bachem) was reconstituted in hexafluoroisopropanol (HFIP) to 1 mM. The peptide solution was sonicated for 15 min at room temperature, agitated overnight, and aliquots were made into non-siliconized microcentrifuge tubes. The HFIP was then evaporated under a stream of argon. The resulting peptide film was dried under vacuum for 10 min, tightly sealed and stored at −80° C. until used.
A positive control without a small molecule was prepared to measure maximum RFU. A negative control without Aβ1-42 was prepared for each small molecule. […] The solutions were then incubated for 24 hrs at 37° C., and the spectrofluorescence (relative fluorescence units; RFU) were read in six replicates in black 384-well assay plates (Perkin-Elmer) on a Perkin-Elmer FluoroCount spectrofluorometer. The inhibition of aggregation is expressed as mean % inhibition±1 standard deviation (SD) according to the following equation:
Racemic compounds and their enantiomers were tested for their ability to inhibit amyloid peptide aggregation using the ThT assay. To determine the IC50, the following dilutions of the compounds were used in the ThT assay described above:

Turning to `CN1CCC(c2c[nH]c3cc(Nc4ccc5[nH]cc(C6CCNCC6)c5c4)ccc23)CC1` [Example 68], the inhibition at 330 µM came out at 90.4 ± 5.3%. `c1cc(N2CCOCC2)ccc1Nc1ccc2c(C3CCNCC3)c[nH]c2n1` [Example 69]: the inhibition at 330 µM stood at 86.5 ± 7.2%. For `Cn1cc(C2CCNCC2)c2ccc(Nc3cccc(N4CCOCC4)c3)cc21` [Example 70], the inhibition at 330 µM came out at 91 ± 1.2%. On to `Cn1cc(C2CCNCC2)c2ccc(Nc3ccc(N4CCOCC4)cc3)nc21` [Example 71], for which the inhibition at 330 µM worked out at 90.7 ± 3%.

With `c1ccc2c(c1)CCN(c1ccc3c(C4CCNCC4)c[nH]c3c1)C2` [Example 72], the inhibition at 330 µM worked out at 97.9 ± 0.5%. With `c1cc(N2CCOCC2)ccc1Nc1ccc2c(C3CCNCC3)c[nH]c2c1` [Example 73] the figure was 99.2 ± 0.3%. `CN1CCC(c2cn(C)c3cc(Nc4cccc(N5CCOCC5)c4)ccc23)CC1` [Example 75]: the inhibition at 330 µM stood at 97.1 ± 2%.

In the case of `CN(C)C1CCc2[nH]c3ccc(Nc4ccc(N5CCOCC5)cc4)cc3c2C1` (stereo not drawn) [Example 76], the inhibition at 330 µM was found to be 96.9 ± 2.3%.

Consider `CN1CCN(c2ccc(Nc3ccc4[nH]c5c(c4c3)CC(N(C)C)CC5)cc2)CC1` (stereo not drawn) [Example 77], for which the inhibition at 330 µM worked out at 98 ± 0.6%. Consider `CN1CCC(c2c[nH]c3cc(Nc4ccc5c(c4)OCCCO5)ccc23)CC1` [Example 78], for which the inhibition at 330 µM amounted to 75 ± 1.4%. For `CN1CCC(c2c[nH]c3cc(Nc4cc(F)c(F)cc4F)ccc23)CC1` [Example 79], the inhibition at 330 µM amounted to 91 ± 4.2%.

Turning to `CNC1CCc2c(c3ccc(Nc4cccc(N5CCN(C)CC5)c4)nc3n2C)C1` (stereo not drawn) [Example 80], the inhibition at 330 µM came out at 83.3 ± 0.1%. For `COc1ccc(Nc2ccc3c4c(n(C)c3n2)CCCC4)cc1OC` [Example 81], the inhibition at 330 µM amounted to 90.5 ± 0.5%.

On to `CNC1CCc2c(c3ccc(Nc4cccc(N5CCOCC5)c4)nc3n2C)C1` (stereo not drawn) [Example 82], for which the inhibition at 330 µM stood at 96.6 ± 2%. The result for `CNC1CCc2c(c3ccc(Nc4ccc(N5CCN(C)CC5)cc4)nc3n2C)C1` (stereo not drawn) [Example 83] reads 82.7 ± 0.7%; that for `CNC1CCc2c(c3ccc(Nc4ccc5c(c4)OCCCO5)nc3n2C)C1` (stereo not drawn) [Example 84], 91.7 ± 0.2%. With `CNC1CCc2c(c3ccc(Nc4ccc5c(c4)OCC(=O)N5)nc3n2C)C1` (stereo not drawn) [Example 85] the figure was 95.1 ± 0.9%; with `CNC1CCc2c(c3ccc(Nc4ccc5c(c4)NC(=O)CO5)nc3n2C)C1` (stereo not drawn) [Example 86], 96.6 ± 0.7%; with `CN1CCC(c2c[nH]c3cc(Nc4ccc5c(c4)OCC(=O)N5)ccc23)CC1` [Example 87], 80.8 ± 0.5%. Take `COc1ccc(Nc2ccc3[nH]c4c(c3c2)CC(N(C)C)CC4)cc1OC` (stereo not drawn) [Example 88]: the inhibition at 330 µM came out at 96.9 ± 2.6%. For the compound `CNC1(C)CCc2c(c3ccc(Nc4ccc(F)c(F)c4)nc3n2C)C1` (stereo not drawn) [Example 89], the inhibition at 330 µM came to 89.6 ± 5%. Turning to `CNC1(C)CCc2c(c3ccc(Nc4ccc(OC)c(OC)c4)nc3n2C)C1` (stereo not drawn) [Example 90], the inhibition at 330 µM stood at 75.1 ± 0.3%. On to `COc1ccc(Nc2ccc3c(C4CCN(C)CC4)c[nH]c3c2)cc1OC` [Example 91], for which the inhibition at 330 µM was determined as 92.5 ± 1.3%. Regarding `CNC1CCc2c(c3ccc(Nc4ccc5[nH]cc(C6CCNCC6)c5c4)nc3n2C)C1` (stereo not drawn) [Example 92], the inhibition at 330 µM came to 99.6 ± 0.6%. For the compound `c1ccc2c(c1)CCC2Nc1ccc2c(C3CCNCC3)c[nH]c2c1` (stereo not drawn) [Example 94], the inhibition at 330 µM was determined as 94.4 ± 3.6%. For `CNC1CCc2c(c3ccc(Nc4ccc(OC)c(OC)c4)nc3n2C)C1` (stereo not drawn) [Example 95], the inhibition at 330 µM is 89.9 ± 6.1%.

With `COc1ccc(Nc2ccc3c(C4CCNCC4)cn(C)c3c2)cc1OC` [Example 97], the inhibition at 330 µM came out at 83.8 ± 3.7%. For `COc1ccc(Nc2ccc3c(C4CCNCC4)cn(C)c3c2)cc1F` [Example 98], the inhibition at 330 µM was determined as 95.3 ± 0.1%. `COc1ccc(Nc2ccc3c(C4CCN(C)CC4)c[nH]c3c2)cc1F` [Example 99]: the inhibition at 330 µM was determined as 94.4 ± 0.1%. On to `COc1ccc(Nc2ccc3[nH]cc(C4CCN(C)CC4)c3c2)cc1OC` [Example 100], for which the inhibition at 330 µM was 66.6 ± 1.3%. Consider `COc1ccc(Nc2ccc3[nH]cc(C4CCN(C)CC4)c3c2)cc1F` [Example 101], for which the inhibition at 330 µM amounted to 70.2 ± 9.8%.

Turning to `COc1ccc(Nc2ccc3c(C4CCNCC4)c[nH]c3n2)cc1F` [Example 102], the inhibition at 330 µM was determined as 84.1 ± 1.5%. Consider `COc1ccc(Nc2ccc3c(C4CCNCC4)cn(C)c3n2)cc1F` [Example 103], for which the inhibition at 330 µM worked out at 93.2 ± 3.7%.

`COc1ccc(Nc2ccc3c(C4CCN(C)CC4)cn(C)c3c2)cc1OC` [Example 104]: the inhibition at 330 µM came out at 89.3 ± 10.6%. `COc1ccc(Nc2ccc3c(C4CCN(C)CC4)cn(C)c3n2)cc1F` [Example 105]: the inhibition at 330 µM was 96.7 ± 0.7%. Take `CNC1CCc2[nH]c3ccc(Nc4ccc(OC)c(OC)c4)cc3c2C1` (stereo not drawn) [Example 106]: the inhibition at 330 µM is 86.4 ± 3.8%. With `CNC1CCc2[nH]c3ccc(Nc4ccc(OC)c(F)c4)cc3c2C1` (stereo not drawn) [Example 107] the figure was 86.8 ± 1.9%. With `CNC1CCc2[nH]c3ccc(Nc4ccc5c(C6CCNCC6)cn(C)c5c4)cc3c2C1` (stereo not drawn) [Example 108], the inhibition at 330 µM came out at 98.9 ± 0.5%. Turning to `CNC1CCc2[nH]c3ccc(NC4CCN(C)CC4)cc3c2C1` (stereo not drawn) [Example 109], the inhibition at 330 µM amounted to 63.6 ± 2%. For the compound `Cn1cc(C2CCNCC2)c2ccc(Nc3ccc4ocnc4c3)cc21` [Example 111], the inhibition at 330 µM is 99.5 ± 0.1%. As to `COc1cc(Nc2ccc3c(C4CCNCC4)cn(C)c3c2)ccc1F` [Example 112], the inhibition at 330 µM worked out at 91.3 ± 1.3%. `CN1CCC(c2c[nH]c3cc(Nc4cc(F)c(F)c(F)c4)ccc23)CC1` [Example 113]: the inhibition at 330 µM is 90.5 ± 0.5%.

Regarding `COc1cc(Nc2ccc3c(C4CCN(C)CC4)c[nH]c3c2)ccc1F` [Example 114], the inhibition at 330 µM was found to be 82.2 ± 1.6%. As for `CNC1CCc2c(c3ccc(Nc4ccc(F)c(OC)c4)nc3n2C)C1` (stereo not drawn) [Example 115], the inhibition at 330 µM is 94 ± 0.8%. As to `CNC1CCc2[nH]c3ccc(Nc4ccc(F)c(OC)c4)cc3c2C1` (stereo not drawn) [Example 116], the inhibition at 330 µM was 89 ± 3.6%. With `CNC1CCc2c(c3ccc(Nc4ccc5c(C6CCN(C)CC6)c[nH]c5c4)nc3n2C)C1` (stereo not drawn) [Example 117] the figure was 90.7 ± 7.9%; with `CN1CCC(c2c[nH]c3cc(Nc4ccc5[nH]cc(C6CCN(C)CC6)c5c4)ccc23)CC1` [Example 118], 96.8 ± 0.9%; with `CN1CCC(c2c[nH]c3cc(Nc4ccc5c(C6CCN(C)CC6)c[nH]c5c4)ccc23)CC1` [Example 119], 99.2 ± 0.3%. On to `CNC1CCc2[nH]c3cc(Nc4ccc(OC)c(OC)c4)ccc3c2C1` (stereo not drawn) [Example 120], for which the inhibition at 330 µM was found to be 100%. In the case of `COc1ccc(Nc2ccc3c(c2)c2c(n3C)CCC(OC)C2)cc1OC` (stereo not drawn) [Example 121], the inhibition at 330 µM was 91 ± 2.5%. The result for `COc1cc(Nc2ccc3c(c2)c2c(n3C)CCC(OC)C2)ccc1F` (stereo not drawn) [Example 122] reads 80.8 ± 2.9%.

Take `COc1ccc(Nc2ccc3c4c(n(C)c3c2)CCC(OC)C4)cc1OC` (stereo not drawn) [Example 123]: the inhibition at 330 µM was 93 ± 2.2%. On to `COc1cc(Nc2ccc3c4c(n(C)c3c2)CCC(OC)C4)ccc1F` (stereo not drawn) [Example 124], for which the inhibition at 330 µM came to 79.1 ± 3.8%. Turning to `COC1CCc2c(c3cc(Nc4ccc5c(c4)OCO5)ccc3n2C)C1` (stereo not drawn) [Example 125], the inhibition at 330 µM was determined as 84.2 ± 5.8%. As for `COC1CCc2c(c3cc(Nc4ccc5c(c4)OCCO5)ccc3n2C)C1` (stereo not drawn) [Example 126], the inhibition at 330 µM came to 82.2 ± 2.2%. `COC1CCc2[nH]c3cc(Nc4ccc5c(c4)OCCO5)ccc3c2C1` (stereo not drawn) [Example 127]: the inhibition at 330 µM is 91.5 ± 2.5%. Turning to `Cn1c2c(c3ccc(Nc4ccc(F)c(F)c4)nc31)CC(OCCF)CC2` (stereo not drawn) [Example 128], the inhibition at 330 µM stood at 88.6 ± 1.2%. With `COc1ccc(Nc2ccc3c4c(n(C)c3n2)CCC(OCCF)C4)cc1OC` (stereo not drawn) [Example 129] the figure was 79.9 ± 0.6%; with `Cn1c2c(c3ccc(Nc4ccc5c(c4)OCCO5)nc31)CC(OCCF)CC2` (stereo not drawn) [Example 130], 91.6 ± 0.2%. In the case of `COc1ccc(Nc2ccc3c4c(n(C)c3n2)CCC(OC(C)C)C4)cc1OC` (stereo not drawn) [Example 131], the inhibition at 330 µM was determined as 91.4 ± 0.2%.

Turning to `CNC1CCc2[nH]c3cc(Nc4ccc5c(c4)OCCO5)ccc3c2C1` (stereo not drawn) [Example 132], the inhibition at 330 µM is 99.4 ± 0.8%. As to `CNC1CCc2c(c3ccc(Nc4ccc(OC)c(OC)c4)cc3n2C)C1` (stereo not drawn) [Example 133], the inhibition at 330 µM is 99.2 ± 0.3%. Take `CNC1CCc2c(c3cc(Nc4ccc(F)c(F)c4)cnc3n2C)C1` (stereo not drawn) [Example 134]: the inhibition at 330 µM came out at 67.3 ± 10.4%.

For `CNC1CCc2c(c3cc(Nc4ccc(OC)c(OC)c4)cnc3n2C)C1` (stereo not drawn) [Example 135], the inhibition at 330 µM is 51.9 ± 5.5%.

Turning to `COCCOC1CCc2c(c3ccc(Nc4ccc(F)c(F)c4)nc3n2C)C1` (stereo not drawn) [Example 136], the inhibition at 330 µM turned out to be 88 ± 1.4%.

With `CNC1CCc2c(c3cc(Nc4ccc5c(c4)OCCO5)cnc3n2C)C1` (stereo not drawn) [Example 137], the inhibition at 330 µM amounted to 83.3 ± 3.3%. Regarding `CNC1CCc2c(c3cc(Nc4ccc(F)c(OC)c4)cnc3n2C)C1` (stereo not drawn) [Example 138], the inhibition at 330 µM came out at 69.3 ± 0.7%. On to `CNC1CCc2c(c3ccc(Nc4ccc(F)c(F)c4)cc3n2C)C1` (stereo not drawn) [Example 140], for which the inhibition at 330 µM turned out to be 93.8 ± 0.6%. With `COCCNC1CCc2c(c3ccc(Nc4ccc(F)c(F)c4)nc3n2C)C1` (stereo not drawn) [Example 141] the figure was 87.5 ± 1.4%. With `COCCNC1CCc2c(c3ccc(Nc4ccc(OC)c(OC)c4)nc3n2C)C1` (stereo not drawn) [Example 142], the inhibition at 330 µM amounted to 73.2 ± 6.2%. `CC(=O)Nc1cccc(Nc2ccc3c(C4CCNCC4)c[nH]c3n2)c1` [Example 143]: the inhibition at 330 µM was 64.8 ± 3.7%. With `Cn1cc(C2CCNCC2)c2ccc(Nc3ccc4c(c3)OCO4)cc21` [Example 145], the inhibition at 330 µM was determined as 88.3 ± 4.9%. `CN1CCC(c2c[nH]c3cc(Nc4ccc5c(C6CCN(C)CC6)c[nH]c5n4)ccc23)CC1` [Example 148]: the inhibition at 330 µM stood at 88.7 ± 2.2%.

As for `CN1CCC(c2cn(C)c3nc(Nc4ccc5c(c4)OCO5)ccc23)CC1` [Example 149], the inhibition at 330 µM came out at 84.4 ± 4.1%. As to `CN1CCC(c2cn(C)c3nc(Nc4ccc5c(c4)OCCO5)ccc23)CC1` [Example 150], the inhibition at 330 µM is 83.9 ± 1.5%.

As usually defined, the inhibition is the relative decrease from the control value, in per cent.

(Values after patent US10500207B2, “Compounds for the treatment of diseases associated with amyloid or amyloid-like proteins” (AC Immune SA, priority 2010, dated 2019).)
